In US5332734A, “Oxazinone derivative” (Japan Tobacco, Incorporated, priority 1991, dated 1994):

Columns and labels:
[1] = target: T1, human sputum elastase (HSE) (Homo sapiens, UniProt P08246); test: HSE inhibitory activity; assay type: biochemical; details: HSE 10 nM, substrate 0.25 mM, pH 7.0
T1 construct: purchased Sigma Inc; host or cells: human sputum (by its name)
T1 sequence (P08246 30-247 limits assumed): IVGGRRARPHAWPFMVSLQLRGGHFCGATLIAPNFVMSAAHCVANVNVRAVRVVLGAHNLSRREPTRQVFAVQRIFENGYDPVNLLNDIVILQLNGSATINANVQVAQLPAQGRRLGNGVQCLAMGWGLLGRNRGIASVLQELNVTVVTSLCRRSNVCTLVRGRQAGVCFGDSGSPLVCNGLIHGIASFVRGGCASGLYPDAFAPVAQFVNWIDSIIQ
Experimental: (§1) Inhibotory activities of the oxadinone derivative of the present invention against human leukocyte elastase (HLE), human sputum elastase (HSE), human cathepsin G (HCG), bovine pancreatic α-chymotrypsin (CYT) and bovine pancreatic trypsin (TRY) were measured as follows:
(2) Measurement of HSE Inhibiting Activity
(§2) a) Enzyme Preparing Method Bought from Sigma Inc.
(§3) Employed was a measuring method similar to that described previously in conjunction with the measurement of the HLE inhibitory activity, except that used was a buffer solution of pH 7.0. The final concentrations of HSE and the synthetic substrate (MeOSuc-Ala-Ala-Pro-Phe-pNA; FUNAKOSHI) in the solution of the enzyme reaction were 10 nM and 0.25 mM, respectively.

human cathepsin G (HCG) = target: T2, human cathepsin G (HCG) (Homo sapiens, UniProt P08311); test: HCG inhibitory activity; assay type: biochemical; details: HCG 50 nM, substrate 0.5 mM, pH 7.5
T2 construct: purchased Cosmo Bio Inc
T2 sequence (P08311 21-255): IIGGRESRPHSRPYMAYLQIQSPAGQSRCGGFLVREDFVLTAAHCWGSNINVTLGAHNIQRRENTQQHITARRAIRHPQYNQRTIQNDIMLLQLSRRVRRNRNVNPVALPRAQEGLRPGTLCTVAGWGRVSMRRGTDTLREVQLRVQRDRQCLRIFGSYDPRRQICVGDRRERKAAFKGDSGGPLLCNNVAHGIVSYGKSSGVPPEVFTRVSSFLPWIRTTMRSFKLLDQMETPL
Experimental: as §1
(3) Measurement of HCG Inhibitory Activity
a) Enzyme Preparing Method Bought from Cosmo Bio Inc.
as §3, with “inhibiting” for “inhibitory”, “7.5.” for “7.0.”, “HCG” for “HSE”, “(Ac-Ala-Ala-Pro-Phe-pNA;” for “(MeOSuc-Ala-Ala-Pro-Phe-pNA;”, “50” for “10”, “0.5” for “0.25”

[2] = target: T3, bovine pancreatic trypsin (TRY) (Bos taurus, UniProt P00760); test: TRY inhibitory activity; assay type: biochemical; details: TRY 25 nM, substrate 1.0 mM, pH 7.5
T3 construct: purchased Sigma Inc; host or cells: bovine pancreas (by its name)
T3 sequence (P00760 24-246): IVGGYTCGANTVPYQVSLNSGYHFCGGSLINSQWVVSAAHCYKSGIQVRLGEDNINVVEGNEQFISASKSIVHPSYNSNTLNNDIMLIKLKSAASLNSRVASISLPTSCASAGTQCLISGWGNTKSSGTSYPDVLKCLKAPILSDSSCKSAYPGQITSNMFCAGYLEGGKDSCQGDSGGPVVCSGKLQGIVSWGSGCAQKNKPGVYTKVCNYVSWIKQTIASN
Experimental: as §1
(5) Measurement of TRY Inhibitory Activity
as §2
as §3, with “inhibiting” for “inhibitory”, “7.5.” for “7.0.”, “TRY” for “HSE”, “(Z-Arg-pNA;” for “(MeOSuc-Ala-Ala-Pro-Phe-pNA;”, “25” for “10”, “1.0” for “0.25”

human neutrophils = test: Activity for suppressing chemotaxis of human neutrophils (fMLP); assay type: cell-based; details: Neutrophil, 1 h, one hour
Experimental: Test 2: Activity of the Invented Compound for Suppressing Chemotaxis of Human Neutrophils
A neutrophil fraction (60% percoal fraction having neutrophil purity of at least 90%) was obtained from a human peripheral blood by a percoal density gradient centrifugal separation (2300 rpm, 20 minutes).
1300 μl of a culture medium containing 10^-7 M of fMLP (formylmethionyloycyl-phenylalanine), which is a neutrophil chemotaxis factor, was added in advance to each well of a chemotaxis chamber (KURABO). An inter cell having pores 5 μm in diameter and containing 8×10^5 neutrophils and the compound of the present invention adjusted at a desired concentration was disposed in the chemotaxis chamber. After culturing for one hour at 37° C. within a culturing device containing 5% of carbon dioxide gas, the number of cells migrated from the upper side of inter cell membrane into the lower side of the membrane in the chamber was counted by the method described in the following. Specifically, the lower side surface of the inter cell membrane was washed 4 times with PBS. After fixing the washed surface with methanol, the cells were dyed with hematoxylin-eosine solution. Then, the membrane was removed from the inter cell and put on a sliding glass for air-drying, followed by sealing with Canada balsam. Under this condition, five areas selected at random of the membrane were microscopically observed so as to count the number of cells. An average of the number of cells within the five areas was calculated so as to determine the number of migrated cells.
The function of the invented compound for suppressing chemotaxis was determined by the formula given below, in which the value obtained by subtracting the number of migrating cells in the reference experiment in which fMLP was not added from the number of migrating cells in the experiment in which the compound of the present invention was not added was set at 100:
= 100 - (C - D)/(E - D) × 100
A: Chemotaxis in the case of containing the compound of the present invention;
B: Chemotaxis in the case of not containing the compound of the present invention;
C: The number of migrating cells in the case of adding the compound of the present invention, fMLP;
D: The number of migrating cells in the case of not adding fMLP; and
E: The number of migrating cells in the case of adding only fMLP.

IC50 [1] [nM] | IC50 (human cathepsin G (HCG)) [nM] | IC50 [2] [nM] | SMILES | inhibition at 50 µM (human neutrophils; concentration 50 (μm), fMLP 10^-7 M) [%] | activity at 50 µM (human neutrophils; concentration 50 (μm), without compound = 100, fMLP 10^-7 M) [%] | inhibition at 100 µM (human neutrophils; concentration 100 (μm), fMLP 10^-7 M) [%] | activity at 100 µM (human neutrophils; concentration 100 (μm), without compound = 100, fMLP 10^-7 M) [%]
310 | > 5500 | > 6890 | Cc1cccc2nc([C@@H](NC(=O)OCC3c4ccccc4-c4ccccc43)C(C)C)oc(=O)c12 [Compound 1, 2-{1(S)-[(9-fluorenylmethoxycarbonyl)amino]-2-methylpropyl}-5-methyl-4H-3,1-benzoxazin-4-one] | 89 | 11 | 99 | 1
300 | > 5340 | > 6680 | Cc1cccc2nc([C@H](CC(C)C)NC(=O)OCC3c4ccccc4-c4ccccc43)oc(=O)c12 [Compound 2, 2-{1(S)-[(9-fluorenylmethoxycarbonyl)amino]-3-methylbutyl}-5-methyl-4H-3,1-benzoxazin-4-one] | – | – | – | –
